The text below walks through data of patent publication US11084824B2, “Pyrazolopyrimidine derivatives, preparation method thereof, and pharmaceutical composition for use in preventing or treating cancer, autoimmune disease and brain disease containing the same as an active ingredient” (Korea Research Institute of Chemical Technology, priority 2017, dated 2021).

Experiment [1] addresses Bruton's tyrosine kinase (BTK) (Homo sapiens (Human), UniProt Q06187). As to the kind of experiment: BTK enzyme inhibition assay (Cisbio HTRF kit). Particulars: 30 minutes reaction, fluorescence 665 nm/620 nm. It counts as biochemical. The protocol: BTK enzyme evaluation with each compound of examples of the invention was performed by using BTK enzyme inhibition diagnosis kit (Cisbio, Codolet, France). […] Then, EDTA (ethylenediaminetetraacetic acid) was added thereto in order to terminate the reaction. At this time, the EDTA solution contained curopium-containing antibody (antiphosphoresidue antibody) and straptavidin-XL665 (SA-XL665, Cisbio). After incubation for 1 hour, fluorescence was measured. The emission values of 665 nm and 620 nm excited at 337 nm were measured with Envision reader. IC50 values were determined using GraphPad prism (version 5). Herein, the curve indicates a nonlinear regression model, which was determined by logarithmic functions and reaction values.

In another experiment the test system is TMD8 cells. As to the kind of experiment: TMD8 cell growth inhibition (WST-1, 72 hours). The format is cell-based. Particulars: Homo sapiens, TMD8 ABC type DLBCL cell line, WST-1, absorbance 450 nm. The protocol: TDM-8 cells, the ABC (activated B-cell) type DLBCL (diffuse large B cell lymphoma) cell line sensitive to BTK signaling, were seeded in a 96-well plate at 30% confluency. Then, the compounds of the invention were treated thereto at different concentrations. 72 hours later, WST-1 reagent was added thereto. One hour later, absorbance was measured at 450 nm by using a spectramax spectrophotometer.

Each structure is given as a SMILES string.

Chain of Bruton's tyrosine kinase (BTK) (Q06187 whole entry): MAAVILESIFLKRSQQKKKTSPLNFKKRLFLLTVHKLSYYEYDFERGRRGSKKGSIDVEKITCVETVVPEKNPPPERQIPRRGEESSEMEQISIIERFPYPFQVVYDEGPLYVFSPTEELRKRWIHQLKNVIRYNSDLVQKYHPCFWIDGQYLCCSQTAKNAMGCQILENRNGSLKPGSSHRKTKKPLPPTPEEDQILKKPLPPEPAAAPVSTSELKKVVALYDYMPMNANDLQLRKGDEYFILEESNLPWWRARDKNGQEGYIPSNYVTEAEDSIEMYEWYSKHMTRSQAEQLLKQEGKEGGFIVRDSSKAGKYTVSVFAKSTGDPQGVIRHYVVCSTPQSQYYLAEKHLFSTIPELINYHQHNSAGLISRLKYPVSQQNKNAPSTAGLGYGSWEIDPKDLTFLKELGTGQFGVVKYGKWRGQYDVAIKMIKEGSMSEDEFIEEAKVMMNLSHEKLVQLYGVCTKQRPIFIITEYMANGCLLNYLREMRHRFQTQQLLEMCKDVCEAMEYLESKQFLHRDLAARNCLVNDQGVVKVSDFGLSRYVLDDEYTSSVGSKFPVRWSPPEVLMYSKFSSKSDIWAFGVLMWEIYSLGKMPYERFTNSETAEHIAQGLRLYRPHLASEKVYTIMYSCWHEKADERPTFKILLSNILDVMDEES

`Cc1cccc(C)c1Nc1nn(C)c2nc(Nc3ccc4c(c3)CN(C(=O)CN(C)C)CC4)ncc12` [Example 31, 2-(dimethylamino)-1-(7-(3-(2,6-dimethylphenylamino)-1-methyl-1H-pyrazolo[3,4-d]pyrimidine-6-ylamino)-3,4-dihydroisoquinolin-2(1H)-yl)ethanone]: the IC50 in experiment [1] was found to be 0.8 nM; in the experiment on TMD8 cells it was 64.2 nM.
As for `Cc1cccc(C)c1Nc1nn(C)c2nc(Nc3ccc4c(c3)C(C(C)C)N(C)CC4)ncc12` (stereo not drawn) [Example 65, N3-(2,6-dimethylphenyl)-N 6-(1-isopropyl-2-methyl-1,2,3,4-tetrahydroisoquinoline-7-yl)-1-methyl-1H-pyrazolo[3,4-d]pyrimidine-3,6-diamine], the figures for the IC50 (in experiment [1]; in the experiment with TMD8 cells) were 7.74 nM and 274 nM, respectively.
For `Cc1cccc(C)c1Nc1nn(C)c2nc(Nc3ccc4c(c3)COCC4)ncc12` [Example 18, N^3(2,6-dimethylphenyl)-N^6 (isochroman-7-yl)-1-methyl-1H-pyrazolo[3,4-d]pyrimidine-3,6-diamine], the values for the IC50 (in experiment [1]; with TMD8 cells) were 0.5 nM and 134 nM, respectively.
Turning to `Cc1cccc(C)c1Nc1nn(C)c2nc(Nc3ccc4c(c3)CN(C)CC4(C)C)ncc12` [Example 63, N3-(2,6-dimethylphenyl)-1-methyl-N 6-(2,4,4-trimethyl-1,2,3,4-tetrahydroisoquinoline-7-yl)-1H-pyrazolo[3,4-d]pyrimidine-3,6-diamine], the values for the IC50 (in experiment [1]; with TMD8 cells) were 2.13 nM and 20.9 nM, respectively.
The like results for `Cc1cc(Oc2ccccc2)cc(C)c1Nc1nn(C)c2nc(Nc3ccc4c(c3)CNCC4)ncc12` [Example 33, N-(2,6-dimethyl-4-phenoxyphenyl)-1-methyl-N^6 (1,2,3,4-tetrahydroisoquinoline-7-yl)-1H-pyrazolo[3,4-d]pyrimidine-3,6-diamine] were, in that order, 5 nM and 669 nM.
As for `Cc1cccc(C)c1Nc1nn(C)c2nc(Nc3ccc4c(c3)CN(C(=O)C3CC3)CC4)ncc12` [Example 23, cyclopropyl(7-(3-(2,6-dimethylphenylamino)-1-methyl-1H-pyrazolo[3,4-d]pyrimidine-6-ylamino)-3,4-dihydroisoquinoline-2(1H)-yl)methanone], the IC50 in experiment [1] is 0.3 nM; with TMD8 cells, 87.9 nM.
Taken in the same sequence, the figures for `Cc1ccc(Nc2nn(C)c3nc(Nc4ccc5c(c4)CNCC5)ncc23)c(C)c1` [Example 39, N^3-(2,4-dimethylphenyl)-1-methyl-N^6 (1,2,3,4-tetrahydroisoquinoline-7-yl)-1H-pyrazolo[3,4-d]pyrimidine-3,6-diamine] were 2.8 nM and 292 nM.
Taken in the same sequence, the figures for `CC(=O)N1CCc2ccc(Nc3ncc4c(Nc5c(C)cccc5C)nn(C)c4n3)cc2C1(C)C` [Example 60, 1-(7-((3-((2,6-dimethylphenyl)amino)-1-methyl-1H-pyrazolo[3,4-d]pyrimidine-6-yl)amino)-1,1-dimethyl-3,4-dihydroisoquinoline-2(1H)-yl)ethane-1-one] were 4.01 nM and 159 nM.
For the compound `CCc1cccc(CC)c1Nc1nn(C)c2nc(Nc3ccc4c(c3)CNCC4)ncc12` [Example 36, N^3-(2,6-diethylphenyl)-1-methyl-N^6-(1,2,3,4-tetrahydroisoquinoline-7-yl)-1H-pyrazolo[3,4-d]pyrimidine-3,6-diamine], the IC50 in experiment [1] was 44 nM; with TMD8 cells it was 968 nM.
Taken in the same sequence, the figures for `Cc1ccc(NC(=O)c2cccc(C(F)(F)F)c2)c(C)c1Nc1nn(C)c2nc(Nc3ccc4c(c3)CNCC4)ncc12` [Example 29, N-(2,4-dimethyl-3-(1-methyl-6-(1,2,3,4-tetrahydroisoquinoline-7-ylamino)-1H-pyrazolo[3,4-d]pyrimidine-3-ylamino)phenyl)-3-(trifluoromethyl)benzamide] were 8 nM and 117 nM.
As for `Cc1cccc(C)c1Nc1nn(C)c2nc(Nc3ccc4c(c3)CN(CCO)CC4)ncc12` [Example 24, 2-(7-((3-((2,6-dimethylphenyl)amino)-1-methyl-1H-pyrazolo[3,4-d]pyrimidine-6-yl)amino)-3,4-dihydroisoquinoline-2(1H)-yl)ethane-1-ol], the values for the IC50 (in experiment [1]; in the experiment with TMD8 cells) were 0.3 nM and 40.1 nM, respectively.
`Cc1cccc(C)c1Nc1nn(C2CCCC2)c2nc(Nc3ccc4c(c3)CNCC4)ncc12` [Example 25, 1-cyclopentyl-N^3-(2,6-dimethylphenyl)-N^6-(1,2,3,4-tetrahydroisoquinoline-7-yl)-1H-pyrazolo[3,4-d]pyrimidine-3,6-diamine]: the IC50 in experiment [1] was 0.3 nM; in the experiment with TMD8 cells, 90.3 nM.
Regarding `Cn1nc(Nc2c(Cl)cccc2Cl)c2cnc(Nc3ccc4c(c3)CN(C(=O)C(F)(F)F)CC4)nc21` [Example 11, 1-(7-(3-(2,6-dichlorophenylamino)-1-methyl-1H-pyrazolo[3,4-d]pyrimidine-6-ylamino)-3,4-dihydroisoquinoline-2(1H)-yl)-2,2,2-trifluoroethaneone], the IC50 was found to be 386 nM in experiment [1] and 243 nM with TMD8 cells.
Regarding `Cc1ccc(NC(=O)c2cccc(C(F)(F)F)c2)cc1Nc1nn(C)c2nc(Nc3ccc4c(c3)C(C)N(C)CC4)ncc12` (stereo not drawn) [Example 64, N-(3-((6-((1,2-dimethyl-1,2,3,4-tetrahydroisoquinolin-7-yl)amino)-1-methyl-1H-pyrazolo[3,4-d]pyrimidine-3-yl)amino)-4-methylphenyl)-3-(trifluoromethyl)benzamide], the values for the IC50 (in experiment [1]; in the experiment with TMD8 cells) were 5.22 nM and 10.1 nM, respectively.
In the case of `Cc1ccc(NC(=O)c2cccc(C(F)(F)F)c2)cc1Nc1nn(C)c2nc(Nc3ccc4c(c3)CNCC4)ncc12` [Example 28, N-(4-methyl-3-((1-methyl-6-((1,2,3,4-tetrahydroisoquinoline-7-yl)amino)-1H-pyrazolo[3,4-d]pyrimidine-3-yl)amino)phenyl)-3-(trifluoromethyl)benzamide], the IC50 in experiment [1] was found to be 3 nM; in the experiment on TMD8 cells it was 17.9 nM.
The like results for `Cc1cccc(C)c1Nc1nn(C2CCC(O)CC2)c2nc(Nc3ccc4c(c3)CNCC4)ncc12` (stereo not drawn) [Example 54, 4-(3-((2,6-dimethylphenyl)amino)-6-((1,2,3,4-tetrahydroisoquinoline-7-yl)amino)-1H-pyrazolo[3,4-d]pyrimidine-1-yl)cyclohexane-1-ol] were, in that order, 1.14 nM and 60.9 nM.
The like results for `COc1cc(C)c(Nc2nn(C)c3nc(Nc4ccc5c(c4)CNCC5)ncc23)c(C)c1` [Example 35, N^3-(4-methoxy-2,6-dimethylphenyl)-1-methyl-N^6-(1,2,3,4-tetrahydroisoquinoline-7-yl)-1H-pyrazolo[3,4-d]pyrimidine-3,6-diamine] were, in that order, 3 nM and 99.3 nM.
Turning to `Cc1cccc(C)c1Nc1nn(C)c2nc(Nc3ccc4c(c3)C(C)NCC4)ncc12` (stereo not drawn) [Example 20, N^3-(2,6-dimethylphenyl)-1-methyl-N^6-(1-methyl-1,2,3,4-tetrahydroisoquinoline-7-yl)-1H-pyrazolo[3,4-d]pyrimidine-3,6-diamine], the IC50 came to 0.5 nM in experiment [1] and 8.28 nM in the experiment on TMD8 cells.
The like results for `Cc1cccc(Cl)c1Nc1nn(C)c2nc(Nc3ccc4c(c3)CNCC4)ncc12` [Example 48, N^3-(2-chloro-6-methylphenyl)-1-methyl-N^6 (1,2,3,4-tetrahydroisoquinoline-7-yl)-1H-pyrazolo[3,4-d]pyrimidine-3,6-diamine] were, in that order, 1.28 nM and 50.2 nM.
Consider `Cc1cccc(C)c1Nc1nn(C)c2nc(Nc3ccc4c(c3)C(C)NC(C)(C)C4)ncc12` (stereo not drawn) [Example 55, N3-(2,6-dimethylphenyl)-1-methyl-N 6-(1,3,3-trimethyl-1,2,3,4-tetrahydroisoquinoline-7-yl)-1H-pyrazolo[3,4-d]pyrimidine-3,6-diamine], for which the IC50 in experiment [1] was 0.847 nM; in the experiment with TMD8 cells, 16.8 nM.
On to `Cc1cccc(C)c1Nc1nn(C)c2nc(Nc3ccc4c(c3)C(C)(C)NCC4)ncc12` [Example 58, N6-(1,1-dimethyl-1,2,3,4-tetrahydroisoquinolin-7-yl)-N 3-(2,6-dimethylphenyl)-1-methyl-1H-pyrazolo[3,4-d]pyrimidine-3,6-diamine], for which the IC50 came out at 1.69 nM in experiment [1] and 8.77 nM in the experiment on TMD8 cells.
For the compound `CCN1CCc2ccc(Nc3ncc4c(Nc5c(C)cccc5C)nn(C)c4n3)cc2C1` [Example 32, N3-(2,6-dimethylphenyl)-N^6-(2-ethyl-1,2,3,4-tetrahydroisoquinoline-7-yl)-1-methyl-1H-pyrazolo[3,4-d]pyrimidine-3,6-diamine], the IC50 in experiment [1] is 0.7 nM; with TMD8 cells, 37.9 nM.
Taken in the same sequence, the figures for `Cc1cc(F)cc(C)c1Nc1nn(C)c2nc(Nc3ccc4c(c3)CNCC4)ncc12` [Example 44, N^3-(4-fluoro-2,6-dimethylphenyl)-1-methyl-N^6-(1,2,3,4-tetrahydroisoquinoline-7-yl)-1H-pyrazolo[3,4-d]pyrimidine-3,6-diamine] were 1.7 nM and 69 nM.
Consider `Cc1cc(C(=O)Nc2ccccn2)cc(C)c1Nc1nn(C)c2nc(Nc3ccc4c(c3)CNCC4)ncc12` [Example 34, 3,5-dimethyl-4-(1-methyl-6-(1,2,3,4-tetrahydroisoquinoline-7-ylamino)-1H-pyrazolo[3,4-d]pyrimidine-3-ylamino)-N-(pyridine-2-yl)benzamide], for which the IC50 in experiment [1] came to 15 nM; in the experiment with TMD8 cells, 178 nM.
